Measured values reported in ChEMBL document CHEMBL4014279, “Synthesis of novel pyrazolo[3,4-b]quinolinyl acetamide analogs, their evaluation for antimicrobial and anticancer activities, validation by molecular modeling and CoMFA analysis” (Eur J Med Chem, 2017).
Values after ≈ are worked out from the molar mass of the structure shown. Active and inactive are the calls of the source. No cut-off for these calls is given here.

Key:
Staphylococcus aureus [1] = assay: Antibacterial activity against Staphylococcus aureus MTCC 96 after 24 hrs by well diffusion method; format: functional; details: MTCC 96, 24 h
A549 [2] = assay: Cytotoxicity against human A549 cells at >100 uM after 24 hrs by MTT assay; format: functional, cell-based
COLO 205 [3] = assay: Cytotoxicity against human COLO205 cells after 24 hrs by MTT assay; format: functional, cell-based; details: COLO 205, 24 h
Pseudomonas aeruginosa = assay: Antibacterial activity against Pseudomonas aeruginosa MTCC 2453 after 24 hrs by well diffusion method; format: functional; details: MTCC 2453, 24 h
HeLa [4] = assay: Cytotoxicity against human HeLa cells after 24 hrs by MTT assay; format: functional, cell-based
Raoultella planticola = assay: Antibacterial activity against Klebsiella planticola MTCC 530 after 24 hrs by well diffusion method; format: functional; details: MTCC 530, 24 h
Escherichia coli = assay: Antibacterial activity against Escherichia coli MTCC 739 after 24 hrs by well diffusion method; format: functional; details: MTCC 739, 24 h
Bacillus subtilis = assay: Antibacterial activity against Bacillus subtilis MTCC 121 after 24 hrs by well diffusion method; format: functional; details: MTCC 121, 24 h
HepG2 [5] = assay: Cytotoxicity against human HepG2 cells at >100 uM after 24 hrs by MTT assay; format: functional, cell-based
Staphylococcus aureus [6] = assay: Antibacterial activity against Staphylococcus aureus MLS16 MTCC 2940 after 24 hrs by well diffusion method; format: functional; details: MLS16 MTCC 2940, 24 h
Micrococcus luteus = assay: Antibacterial activity against Micrococcus luteus MTCC 2470 after 24 hrs by well diffusion method; format: functional; details: MTCC 2470, 24 h
[Candida] aaseri = Antifungal activity against Candida aaseri MTCC 1962 after 24 hrs by well diffusion method; format: functional; details: Yamadazyma aaseri, MTCC 1962, 24 h
Candida albicans [7] = assay: Antifungal activity against Candida albicans MTCC 183 after 24 hrs by well diffusion method; format: functional; details: MTCC 183, 24 h
HepG2 [8] = assay: Cytotoxicity against human HepG2 cells after 24 hrs by MTT assay; format: functional, cell-based; details: HepG2, 24 h
Candida albicans [9] = assay: Antifungal activity against Candida albicans MTCC 227 after 24 hrs by well diffusion method; format: functional; details: MTCC 227, 24 h
Candida albicans [10] = assay: Antifungal activity against Candida albicans MTCC 1637 after 24 hrs by well diffusion method; format: functional; details: MTCC 1637, 24 h
Candida albicans [11] = assay: Antifungal activity against Candida albicans MTCC 3017 after 24 hrs by well diffusion method; format: functional; details: MTCC 3017, 24 h
Candida albicans [12] = assay: Antifungal activity against Candida albicans MTCC 3018 after 24 hrs by well diffusion method; format: functional; details: MTCC 3018, 24 h
Candida albicans [13] = assay: Antifungal activity against Candida albicans MTCC 4748 after 24 hrs by well diffusion method; format: functional; details: MTCC 4748, 24 h
Candida albicans [14] = assay: Antifungal activity against Candida albicans MTCC 3958 after 24 hrs by well diffusion method; format: functional; details: MTCC 3958, 24 h
Candida albicans [15] = assay: Antifungal activity against Candida albicans MTCC 854 after 24 hrs by well diffusion method; format: functional; details: MTCC 854, 24 h
A549 [16] = assay: Cytotoxicity against human A549 cells after 24 hrs by MTT assay; format: functional, cell-based; details: A549, 24 h
Candida albicans [17] = assay: Antifungal activity against Candida albicans MTCC 7315 after 24 hrs by well diffusion method; format: functional; details: MTCC 7315, 24 h
Candida parapsilosis = assay: Antifungal activity against Candida parapsilosis MTCC 1744 after 24 hrs by well diffusion method; format: functional; details: MTCC 1744, 24 h
Nakaseomyces glabratus = assay: Antifungal activity against Candida glabrata MTCC 3019 after 24 hrs by well diffusion method; format: functional; details: MTCC 3019, 24 h
Pichia sporocuriosa = assay: Antifungal activity against Issatchenkia hanoiensis MTCC 4755 after 24 hrs by well diffusion method; format: functional; details: MTCC 4755, 24 h
Pichia kudriavzevii = assay: Antifungal activity against Candida krusei MTCC 3020 after 24 hrs by well diffusion method; format: functional; details: MTCC 3020, 24 h
HeLa [18] = assay: Cytotoxicity against human HeLa cells at >100 uM after 24 hrs by MTT assay; format: functional, cell-based
COLO 205 [19] = assay: Cytotoxicity against human COLO205 cells at >100 uM after 24 hrs by MTT assay; format: functional, cell-based
Candida albicans [20] = assay: Antibiofilm activity against Candida albicans MTCC 4748 after 24 hrs by crystal violet staining based method; format: functional; details: MTCC 4748, 24 h

Row | MIC (Staphylococcus aureus [1]) [µg/mL] | MIC (Pseudomonas aeruginosa) [µg/mL] | MIC (Escherichia coli) [µg/mL] | MIC (Bacillus subtilis) [µg/mL] | MIC (Staphylococcus aureus [6]) [µg/mL] | MIC (Micrococcus luteus) [µg/mL] | MIC ([Candida] aaseri) [µg/mL] | MIC (Candida albicans [7]) [µg/mL] | MIC (Candida albicans [9]) [µg/mL] | MIC (Candida albicans [10]) [µg/mL] | MIC (Candida albicans [11]) [µg/mL] | MIC (Candida albicans [12]) [µg/mL] | MIC (Candida albicans [13]) [µg/mL] | MIC (Candida albicans [14]) [µg/mL] | MIC (Candida albicans [15]) [µg/mL] | MIC (Candida albicans [17]) [µg/mL] | MIC (Candida parapsilosis) [µg/mL] | Compound | Activity (A549 [2]) | MIC (Raoultella planticola) [µg/mL] | Activity (HepG2 [5]) | also measured
1 | 7.8 to 125 (≈ 18.2 to 291 µM) | 7.8 to 125 (≈ 18.2 to 291 µM) | 7.8 to 125 (≈ 18.2 to 291 µM) | 7.8 to 125 (≈ 18.2 to 291 µM) | 7.8 to 125 (≈ 18.2 to 291 µM) | 7.8 to 125 (≈ 18.2 to 291 µM) |  |  |  |  |  |  |  |  |  |  |  | Cc1c2ccccc2nc2c1c(C(F)(F)F)nn2CC(=O)Nc1ccc([N+](=O)[O-])cc1 | inactive | 7.8 to 125 (≈ 18.2 to 291 µM) | inactive | IC50 (COLO 205 [3]): 36.2 µM; IC50 (HeLa [4]): 38.9 µM
2 | 31.2 (≈ 65.5 µM) | > 125 | 62.5 (≈ 131 µM) | 62.5 (≈ 131 µM) | 62.5 (≈ 131 µM) | 7.8 (≈ 16.4 µM) | 62.5 (≈ 131 µM) | 62.5 (≈ 131 µM) | 31.2 (≈ 65.5 µM) | 62.5 (≈ 131 µM) | 31.2 (≈ 65.5 µM) | 62.5 (≈ 131 µM) | 62.6 (≈ 131 µM) | 31.2 (≈ 65.5 µM) | 31.2 (≈ 65.5 µM) | 31.2 (≈ 65.5 µM) | 31.2 (≈ 65.5 µM) | COc1ccc(NC(=O)Cn2nc(C(F)(F)F)c3c(-c4ccccc4)c4ccccc4nc32)cc1 |  | 7.8 (≈ 16.4 µM) |  | IC50 (HepG2 [8]): 20.4 µM; IC50 (COLO 205 [3]): 19.6 µM; IC50 (HeLa [4]): 22.2 µM; IC50 (A549 [16]): 18.2 µM; MIC (Nakaseomyces glabratus): 31.2 µg/mL (≈ 65.5 µM); MIC (Pichia sporocuriosa): 31.2 µg/mL (≈ 65.5 µM); MIC (Pichia kudriavzevii): 62.5 µg/mL (≈ 131 µM)
3 | 7.8 to 125 (≈ 20.7 to 332 µM) | 7.8 to 125 (≈ 20.7 to 332 µM) | 7.8 to 125 (≈ 20.7 to 332 µM) | 7.8 to 125 (≈ 20.7 to 332 µM) | 7.8 to 125 (≈ 20.7 to 332 µM) | 7.8 to 125 (≈ 20.7 to 332 µM) |  |  |  |  |  |  |  |  |  |  |  | Cc1c2ccccc2nc2c1c(C(F)(F)F)nn2CC(=O)NC1CCCC1 | inactive | 7.8 to 125 (≈ 20.7 to 332 µM) | inactive | Activity (HeLa [18]): inactive; Activity (COLO 205 [19]): inactive
4 |  |  |  |  |  |  | 7.8 (≈ 18.7 µM) | 7.8 (≈ 18.7 µM) | 7.8 (≈ 18.7 µM) | 7.8 (≈ 18.7 µM) | 7.8 (≈ 18.7 µM) | 7.8 (≈ 18.7 µM) | 7.8 (≈ 18.7 µM) | 7.8 (≈ 18.7 µM) | 7.8 (≈ 18.7 µM) | 7.8 (≈ 18.7 µM) | 7.8 (≈ 18.7 µM) | Clc1ccc(COC(Cn2ccnc2)c2ccc(Cl)cc2Cl)c(Cl)c1 (stereo not drawn) [MICONAZOLE] |  |  |  | IC50 (Candida albicans [20]): 2.6 µM; MIC (Nakaseomyces glabratus): 7.8 µg/mL (≈ 18.7 µM); MIC (Pichia sporocuriosa): 7.8 µg/mL (≈ 18.7 µM); MIC (Pichia kudriavzevii): 7.8 µg/mL (≈ 18.7 µM)
5 | 62.5 (≈ 142 µM) | > 125 | 62.5 (≈ 142 µM) | 31.2 (≈ 70.8 µM) | 31.2 (≈ 70.8 µM) | 15.6 (≈ 35.4 µM) | 62.5 (≈ 142 µM) | 31.2 (≈ 70.8 µM) | 62.5 (≈ 142 µM) | 62.5 (≈ 142 µM) | 31.2 (≈ 70.8 µM) | 31.2 (≈ 70.8 µM) | 31.2 (≈ 70.8 µM) | 31.2 (≈ 70.8 µM) | 62.5 (≈ 142 µM) | 15.6 (≈ 35.4 µM) | 31.2 (≈ 70.8 µM) | O=C(Cn1nc(C(F)(F)F)c2c(-c3ccccc3)c3ccccc3nc21)N1CCOCC1 | inactive | 15.6 (≈ 35.4 µM) | inactive | Activity (HeLa [18]): inactive; Activity (COLO 205 [19]): inactive; MIC (Nakaseomyces glabratus): 31.2 µg/mL (≈ 70.8 µM); MIC (Pichia sporocuriosa): 15.6 µg/mL (≈ 35.4 µM); MIC (Pichia kudriavzevii): 31.2 µg/mL (≈ 70.8 µM)
6 | 7.8 to 125 (≈ 20.6 to 330 µM) | 7.8 to 125 (≈ 20.6 to 330 µM) | 7.8 to 125 (≈ 20.6 to 330 µM) | 7.8 to 125 (≈ 20.6 to 330 µM) | 7.8 to 125 (≈ 20.6 to 330 µM) | 7.8 to 125 (≈ 20.6 to 330 µM) |  |  |  |  |  |  |  |  |  |  |  | Cc1c2ccccc2nc2c1c(C(F)(F)F)nn2CC(=O)N1CCOCC1 | inactive | 7.8 to 125 (≈ 20.6 to 330 µM) | inactive | Activity (HeLa [18]): inactive; Activity (COLO 205 [19]): inactive
